From patent publication US4554100A, “Alkylamides of carboxyalkanoyl peptides and method for preparation thereof” (Spofa, Spojene podniky pro zdravotnickou vyrobu, priority 1981, dated 1985) come the findings set out here.

Test [1] deals with swine's pancreatic elastase (E3) (Sus scrofa, UniProt P00772). The test can be described thus: Inhibition constants (Ki) with pancreatic elastase and chromogenic p-nitroanilide substrates. It is filed as biochemical. From the text: (§1) The earlier work also led to the surprising discovery that the carboxy group in the N-terminal part of the inhibitor as compared with the hydrophobic residue, such as an acetyl, substantially enhances inhibition capacity in the same manner as it enhances the constants of elastolytic hydrolysis of substrates of this type. It is further known that the properties of an elastolytic inhibitor are dependent upon the length of the peptide chain as well as at the substrate (eur. J. Biochem. 69, 1, 1976), higher inhibition capacity being present with a tripeptide than with a dipeptide. Experiments with vitro inhibition constants (Ki) for the alkylamides of 3-carboxypropionyl and 4-carboxybutyryl di and tripeptides were determined using pancreatic elastase and chromogenic substrates of p-nitroanilides of succinyl or glutaryl tetraalanines, the results of which are set forth in Table 1, below. Inhibition constant of the inhibitors described herein were also determined using human elastase, that is, human duodenal elastase after stimulation with cholecystokinine (E1) or lyophilized human pancreated fluid obtained by cannulation of the pancreatic duct outlet (E2), and they were then compared with swine's pancreatic elastase (E3), the results of which are set forth in Table 2, below.
swine's pancreatic elastase (E3), sequence (P00772 27-266): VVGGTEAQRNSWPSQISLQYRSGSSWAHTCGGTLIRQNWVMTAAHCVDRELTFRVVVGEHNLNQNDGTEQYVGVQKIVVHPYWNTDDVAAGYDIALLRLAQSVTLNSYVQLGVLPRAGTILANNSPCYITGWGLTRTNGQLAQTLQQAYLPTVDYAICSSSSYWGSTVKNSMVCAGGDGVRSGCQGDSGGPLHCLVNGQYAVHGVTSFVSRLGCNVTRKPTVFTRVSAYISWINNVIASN

The target of test [2] is human duodenal elastase after stimulation with cholecystokinine (E1). Briefly: Inhibition constants (Ki) with human duodenal elastase and chromogenic substrates. The test is classed as biochemical.
Description: as §1

In test [3] the target is lyophilized human pancreated fluid obtained by cannulation of the pancreatic duct outlet (E2). Briefly: Inhibition constants (Ki) with human pancreatic fluid elastase and chromogenic substrates. The test is classed as biochemical.
Description: as §1

A short description of test [4]: Experimental pancreatitis in rats induced by sodium desoxycholate, serum amylase. The test is classed as in vivo. The note with it: simultaneous application of 20 mg intraperitoneally.
The mark [5] stands for this setting: Table 1, pancreatic elastase, substrate Glt-(Ala)4-NAn, read-out: Ki, substrate Glt-(Ala)4-NAn.
Setting [6] is: Table 1, pancreatic elastase, substrate Suc-(Ala)4-NAn, read-out: Ki, substrate Suc-(Ala)4-NAn.
[7] abbreviates: Table 2, substrate Glt-(Ala)4-NAn, read-out: Ki, Glt-(Ala)4-NAn, E1.
Setting [8] is: Table 2, substrate Suc-(Ala)4-NAn, read-out: Ki, Suc-(Ala)4-NAn, E1.
[9] abbreviates: Table 2, substrate Glt-(Ala)4-NAn, read-out: Ki, Glt-(Ala)4-NAn, E2.
Where [10] appears, read: Table 2, substrate Suc-(Ala)4-NAn, read-out: Ki, Suc-(Ala)4-NAn, E2.

Where two headings read alike, the source gives them in different places. Starred links: 1 amine or outer side, 2 acyl side, 3 side chain; linkers in the order of their positions; H or OH if unused. Residues, ends and D or L forms follow the SMILES beside them. *: point of attachment. Glutaryl = O=C(CCCC(=O)[*:2])[*:1]; NHPhenethyl = c1ccc(CCN*)cc1; Suc = O=C(CCC(=O)[*:2])[*:1]; NHPr = CCCN*

For `CCNC(=O)[C@H](C)NC(=O)[C@H](C)NC(=O)[C@H](C)NC(C)=O` [Ac--(Ala)3 --NH--Et, reference compound], the Ki in test [1] (setting [5]) stood at 46 µM; in test [1] (setting [6]), 28 µM; in test [2] (setting [7]) it was 123 µM; in test [2] (setting [8]), 238 µM; in test [3] (setting [9]) it was 117 µM; in test [3] (setting [10]) it was 69 µM.

With `CCNC(=O)[C@H](C)NC(=O)[C@H](C)NC(=O)CCCC(=O)O` [Glt--(Ala)2 --NH--Et] (Glutaryl-Ala-Ala-NHEt), the Ki in test [1] (setting [5]) came out at 109 µM; in test [1] (setting [6]), 68.1 µM.

As to `CCNC(=O)[C@H](C)NC(=O)[C@H](C)NC(=O)[C@H](C)NC(=O)CCCC(=O)O` [Glt--(Ala)3 --NH--Et, 4-Carboxybutyrylalanyl-alanyl Alanine Ethylamide], the inhibitory constant (Ki) in test [1] (setting [5]) was found to be 8.4 µM; in test [1] (setting [6]), 8.8 µM; in test [2] (setting [7]), 19 µM; in test [2] (setting [8]) it was 15 µM; in test [3] (setting [9]), 19 µM; in test [3] (setting [10]), 7.4 µM. In addition, the “level of serum amylase” value in test [4] is listed as “lower level of serum amylase”.

For `CNC(=O)[C@H](C)NC(=O)[C@H](C)NC(=O)[C@H](C)NC(=O)CCCC(=O)O` [Glt--(Ala)3 --NH--Me], the Ki was found to be 320 µM in test [1] (setting [5]) and 280 µM in test [1] (setting [6]).

As for `CCCNC(=O)[C@H](C)NC(=O)[C@H](C)NC(=O)[C@H](C)NC(=O)CCCC(=O)O` [Glt--(Ala)3 --NH--Pr, 4-Carboxybutyrylalanyl-alanyl Alanine Propylamide], the Ki in test [1] (setting [5]) worked out at 2.5 µM; in test [1] (setting [6]), 2.5 µM; in test [2] (setting [7]), 7.2 µM; in test [2] (setting [8]) it was 11 µM; in test [3] (setting [9]), 4.5 µM; in test [3] (setting [10]), 3.8 µM.

`CC(C)CNC(=O)[C@H](C)NC(=O)[C@H](C)NC(=O)[C@H](C)NC(=O)CCCC(=O)O` [Glt--(Ala)3 --NH--iBu, 4-Carboxybutyrylalanyl-alanyl Alanine Isobutylamide]: the values for the Ki in test [1] (setting [5]) and in test [1] (setting [6]) were 794 µM and 668 µM, respectively.

Consider `CCNC(=O)[C@@H]1CCCN1C(=O)[C@H](C)NC(=O)[C@H](C)NC(=O)CCCC(=O)O` [Glt--Ala--Ala--Pro--NH--Et, 4-Carboxybutyrylalanyl-alanyl Proline Ethylamide] (Glutaryl-Ala-Ala-Pro-NHEt), for which the Ki in test [1] (setting [5]) was determined as 2.7 µM; in test [1] (setting [6]), 1.6 µM; in test [2] (setting [7]) it was 12 µM; in test [2] (setting [8]) it was 10 µM; in test [3] (setting [9]), 13.8 µM; in test [3] (setting [10]), 2.9 µM. Moreover, the “level of serum amylase” value in test [4] is on record as “lower level of serum amylase”.

`CCCNC(=O)[C@@H]1CCCN1C(=O)[C@H](C)NC(=O)[C@H](C)NC(=O)CCCC(=O)O` [Glt-Ala-Ala-Pro-Nh-Pr, 4-Carboxybutyrylalanyl-alanyl Proline Propylamide] (Glutaryl-Ala-Ala-Pro-NHPr): in test [4], the “level of serum amylase” value is recorded as “lower level of serum amylase”.

Regarding `CCNC(=O)[C@H](C)NC(=O)[C@H](C)NC(=O)[C@H](C)NC(=O)C=CC(=O)O` [Mal--(Ala)3 --NH--Et, 3-Carboxyacryolylalanyl-alanyl Alanine Ethylamide], the Ki stood at 30 µM in test [1] (setting [5]); 35 µM in test [1] (setting [6]); 30 µM in test [1] (Table 2, swine's pancreatic elastase (E3), substrate Glt-(Ala)4-NAn, read-out: Ki, Glt-(Ala)4-NAn, E3); 73 µM in test [2] (setting [7]); 87 µM in test [2] (setting [8]); 117 µM in test [3] (setting [9]). The Ki in test [3] (setting [10]) was found to be 69 µM.

Turning to `C[C@H](NC(=O)CCC(=O)O)C(=O)N[C@@H](C)C(=O)NCCc1ccccc1` [Suc--(Ala)2 --NH--EtPh, 3-Carboxypropionylalanyl Alanine Phenylethylamide] (Suc-Ala-Ala-NHPhenethyl), the figures for the Ki in test [1] (setting [5]) and in test [1] (setting [6]) were 666 µM and 1460 µM, respectively.

As to `CCNC(=O)[C@H](C)NC(=O)[C@H](C)NC(=O)[C@H](C)NC(=O)CCC(=O)O` [Suc--(Ala)3 --NH--Et, 3-Carboxypropionylalanyl-alanyl Alanine Ethylamide], the Ki stood at 29 µM in test [1] (setting [5]); 20 µM in test [1] (setting [6]); 20 µM in test [1] (Table 2, swine's pancreatic elastase (E3), substrate Suc-(Ala)4-NAn, read-out: Ki, Suc-(Ala)4-NAn, E3); 89 µM in test [2] (setting [7]); 76 µM in test [2] (setting [8]); 47 µM in test [3] (setting [9]). Besides, the Ki in test [3] (setting [10]) turned out to be 29 µM.

With `CNC(=O)[C@H](C)NC(=O)[C@H](C)NC(=O)[C@H](C)NC(=O)CCC(=O)O` [Suc--(Ala)3 --NH--Me], the Ki in test [1] (setting [5]) was 680 µM; in test [1] (setting [6]), 510 µM.

In the case of `CCCNC(=O)[C@H](C)NC(=O)[C@H](C)NC(=O)[C@H](C)NC(=O)CCC(=O)O` [Suc--(Ala)3 --NH--Pr, 3-Carboxypropionylalanyl-alanyl Alanine Propylamide], the Ki in test [1] (setting [5]) stood at 4.5 µM; in test [1] (setting [6]) it was 6.8 µM; in test [2] (setting [7]), 21 µM; in test [2] (setting [8]), 12 µM; in test [3] (setting [9]), 14 µM; in test [3] (setting [10]) it was 13 µM.

For `CC(C)CNC(=O)[C@H](C)NC(=O)[C@H](C)NC(=O)[C@H](C)NC(=O)CCC(=O)O` [Suc--(Ala)3 --NH--iBu, 3-Carboxypropionylalanyl-alanyl Alanine Isobutylamide], the Ki was determined as 1470 µM in test [1] (setting [5]) and 816 µM in test [1] (setting [6]).

With `CCNC(=O)[C@H](C)NC(=O)[C@H](C)NC(=O)CCC(=O)O` [Suc--(ala)2 --NH--Et] (Suc-Ala-Ala-NHEt), the Ki in test [1] (setting [5]) stood at 166 µM; in test [1] (setting [6]), 95.2 µM.

With `CCNC(=O)[C@@H]1CCCN1C(=O)[C@H](C)NC(=O)[C@H](C)NC(=O)CCC(=O)O` [Suc--Ala--Ala--Pro--NH--Et, 3-Carboxypropionylalanyl-alanyl Proline Ethylamide] (Suc-Ala-Ala-Pro-NHEt), the Ki was 4.7 µM in test [1] (setting [5]); 2.5 µM in test [1] (setting [6]); 19 µM in test [2] (setting [7]); 14 µM in test [2] (setting [8]); 17 µM in test [3] (setting [9]); 23 µM in test [3] (setting [10]).

With `CCNC(=O)[C@@H]1CCCN1C(=O)[C@H](C)NC(=O)CCC(=O)O` [Suc--Ala--Pro--NH--Et, 3-Carboxypropionylalanyl Proline Ethylamide] (Suc-Ala-Pro-NHEt), the Ki was 80 µM in test [1] (setting [5]) and 111 µM in test [1] (setting [6]).

For the compound `CC(C)CNC(=O)[C@@H]1CCCN1C(=O)[C@H](C)NC(=O)CCC(=O)O` [Suc--Ala--Pro--NH--iBu], the Ki worked out at 5750 µM in test [1] (setting [5]) and 2040 µM in test [1] (setting [6]).

One may read the Ki as a measure of affinity in units of concentration, obtained from inhibition or displacement.
